Measured values published in publication PMC10253577, “Conformationally Restricted Glycoconjugates Derived from Arylsulfonamides and Coumarins: New Families of Tumour-Associated Carbonic Anhydrase Inhibitors” (International Journal of Molecular Sciences, 2023).
Read-outs that look alike come from different tables or passages of the source.

Tests used:
hCA IX [1] = biological target: T1, hCA IX (Homo sapiens, UniProt Q16790); experiment: stopped-flow CO2 hydration assay, hCA IX; conditions: for S.I. I/IX: Ki (CA I)/Ki (CA IX); for S.I. II/IX: Ki (CA II)/Ki (CA IX)
Method: (§3) The panel of CA-directed compounds prepared herein were assessed in vitro against a series of isoforms of human CA with relevant therapeutic interest.
(§4) The choice of such isoforms will provide information about selectivity against tumour-associated CA IX and XII compared to other relevant CAs.
(§5) The inhibitory properties of title compounds against CAs were determined using the stopped-flow CO2 hydrase assay, as previously reported [46].

hCA XII = hCA XII (Homo sapiens, UniProt O43570); experiment: stopped-flow CO2 hydration assay, hCA XII; conditions: for S.I. I/XII: Ki (CA I)/Ki (CA XII); for S.I. II/XII: Ki (CA II)/Ki (CA XII)
Chain of hCA XII (O43570 25-354): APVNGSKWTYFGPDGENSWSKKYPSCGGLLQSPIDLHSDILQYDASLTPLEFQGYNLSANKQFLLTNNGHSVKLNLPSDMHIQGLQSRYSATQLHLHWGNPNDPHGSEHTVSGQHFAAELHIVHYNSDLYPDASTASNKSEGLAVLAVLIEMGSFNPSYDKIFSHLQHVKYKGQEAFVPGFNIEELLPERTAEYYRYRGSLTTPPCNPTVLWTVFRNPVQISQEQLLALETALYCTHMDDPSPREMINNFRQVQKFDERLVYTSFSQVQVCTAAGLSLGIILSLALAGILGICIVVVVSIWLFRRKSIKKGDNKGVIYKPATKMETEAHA
Method: as §3, §4, §5

hCA IX [2] = biological target: T1, hCA IX; parameters: made in house; conditions: previously reported thioureas; cited from earlier work
hCA IV = hCA IV (Homo sapiens, UniProt P22748); experiment: stopped-flow CO2 hydration assay, hCA IV; conditions: mean from three assays, errors ±5–10%
Chain of hCA IV (P22748 19-312): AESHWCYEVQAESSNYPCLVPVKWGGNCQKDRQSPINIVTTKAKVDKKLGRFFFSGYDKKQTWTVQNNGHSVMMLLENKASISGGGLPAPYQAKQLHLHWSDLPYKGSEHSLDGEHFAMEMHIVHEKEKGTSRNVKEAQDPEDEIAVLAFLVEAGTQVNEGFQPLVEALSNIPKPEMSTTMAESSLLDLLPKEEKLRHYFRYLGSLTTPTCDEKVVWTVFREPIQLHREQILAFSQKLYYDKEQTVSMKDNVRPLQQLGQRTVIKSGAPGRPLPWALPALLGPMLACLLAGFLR
Method: as §3, §4, §5

hCA I = hCA I (Homo sapiens, UniProt P00915); experiment: stopped-flow CO2 hydration assay, hCA I
Chain of hCA I (P00915 whole entry): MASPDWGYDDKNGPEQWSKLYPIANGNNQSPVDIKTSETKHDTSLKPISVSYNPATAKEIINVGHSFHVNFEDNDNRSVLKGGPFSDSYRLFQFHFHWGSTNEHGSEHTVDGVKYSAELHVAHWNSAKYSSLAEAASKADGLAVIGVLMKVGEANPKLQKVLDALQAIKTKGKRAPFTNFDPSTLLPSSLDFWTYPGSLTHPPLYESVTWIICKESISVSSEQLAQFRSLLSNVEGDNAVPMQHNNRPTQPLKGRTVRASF
Method: as §3, §4, §5

hCA II = hCA II (Homo sapiens, UniProt P00918); experiment: stopped-flow CO2 hydration assay, hCA II
Method: as §3, §4, §5

A549 (Lung, Non-Small) = experiment: antiproliferative assay (NCI protocol), A549; format: cell-based; conditions: Homo sapiens, drug-sensitive cell line, mean ± SD
Excerpt: (§1) The compounds prepared herein were subjected to in vitro testing as potential antiproliferative agents against a panel of six human solid tumour cell lines, following minor modifications of the protocol from the US National Cancer Institute (NCI). They can be categorized into two groups: drug-sensitive cell lines (A549, HBL-100, HeLa, SW1573) and multidrug resistant cell lines (T-47D, WiDr). […] Ph-derived thiourea 21e and imidazolidine-2-thione 24f were not included in the study.
(§2) Minor modifications of the US National Cancer Institute (NCI) protocol were used.

HBL-100 (Breast) = experiment: antiproliferative assay (NCI protocol), HBL-100; format: cell-based; conditions: Homo sapiens, drug-sensitive cell line, mean ± SD
Excerpt: as §1, §2

HeLa (Cervix) = experiment: antiproliferative assay (NCI protocol), HeLa; format: cell-based; conditions: Homo sapiens, drug-sensitive cell line, mean ± SD
Excerpt: as §1, §2

SW1573 (Lung, Non-Small) = experiment: antiproliferative assay (NCI protocol), SW1573; format: cell-based; conditions: Homo sapiens, drug-sensitive cell line, mean ± SD
Excerpt: as §1, §2

T-47D (Breast) = experiment: antiproliferative assay (NCI protocol), T-47D; format: cell-based; conditions: Homo sapiens, T47D; multidrug-resistant cell line, mean ± SD
Excerpt: as §1, §2

WiDr (Colon) = experiment: antiproliferative assay (NCI protocol), WiDr; format: cell-based; conditions: Homo sapiens, multidrug-resistant cell line, mean ± SD
Excerpt: as §1, §2

[3] = test system: panel of six human solid tumour cell lines (A549, HBL-100, HeLa, SW1573, T-47D, WiDr); experiment: antiproliferative assay (NCI protocol), whole panel; format: cell-based
Excerpt: as §1, §2

Structure (SMILES): NS(=O)(=O)c1ccc(NC(=S)N[C@@H]2O[C@H](CO)[C@@H](O)[C@H](O)[C@H]2O)cc1 [Compound 1a]
- S.I. I/IX (hCA IX [1]): 27.2
- S.I. II/IX (hCA IX [1]): 0.02
- S.I. I/XII (hCA XII): 937
- S.I. II/XII (hCA XII): 0.9

Structure (SMILES): NS(=O)(=O)c1ccc(CCNC(=S)N[C@@H]2O[C@H](CO)[C@@H](O)[C@H](O)[C@H]2O)cc1 [Compound 1c]
- S.I. I/IX (hCA IX [1]): 1.0
- S.I. II/IX (hCA IX [1]): 12.4
- S.I. I/XII (hCA XII): 0.9
- S.I. II/XII (hCA XII): 11.1

Structure (SMILES): NS(=O)(=O)c1ccc(NC(=S)N[C@@H]2O[C@H](CO)[C@H](O)[C@H](O)[C@H]2O)cc1 [Compound 2a]
- S.I. I/IX (hCA IX [1]): 977.1
- S.I. II/IX (hCA IX [1]): 31.7
- S.I. I/XII (hCA XII): 340
- S.I. II/XII (hCA XII): 11.0

Structure (SMILES): NS(=O)(=O)c1ccc(CCNC(=S)N[C@@H]2O[C@H](CO)[C@H](O)[C@H](O)[C@H]2O)cc1 [Compound 2c]
- S.I. I/IX (hCA IX [1]): 2067.9
- S.I. II/IX (hCA IX [1]): 3.3
- S.I. I/XII (hCA XII): 568
- S.I. II/XII (hCA XII): 0.9

Structure (SMILES): NS(=O)(=O)c1ccc(NC(=S)NC2C(O)OC(CO)C(O)C2O)cc1 (stereo not shown) [Compound 3a]
- Ki (hCA IX [2]): 0.077 µM
- S.I. I/IX (hCA IX [1]): 35.1
- S.I. II/IX (hCA IX [1]): 126

Structure (SMILES): NS(=O)(=O)c1cccc(NC(=S)NC2C(O)OC(CO)C(O)C2O)c1 (stereo not shown) [Compound 3b]
- Ki (hCA IX [2]): 0.009 µM

Structure (SMILES): NS(=O)(=O)c1ccc(NC(=S)N[C@H]2C(O)O[C@H](CO)[C@H](O)[C@@H]2O)cc1 (stereo partly shown) [Compound 4a]
- Ki (hCA IX [2]): 0.074 µM
- S.I. I/IX (hCA IX [1]): 48.6
- S.I. II/IX (hCA IX [1]): 104

Structure (SMILES): NS(=O)(=O)c1cccc(NC(=S)N[C@H]2C(O)O[C@H](CO)[C@H](O)[C@@H]2O)c1 (stereo partly shown) [Compound 4b]
- Ki (hCA IX [2]): 0.042 µM
- S.I. I/IX (hCA IX [1]): 102.4
- S.I. II/IX (hCA IX [1]): 22.4

Structure (SMILES): NS(=O)(=O)c1ccc(N2C(=S)NC3C(O)C(C(O)CO)OC32)cc1 [Compound 8a, 1-(4′-Sulfonamidophenyl)-(1″,2″-dideoxy-α-D-glucofurano)[2,1-d]imidazolidine-2-thione]
- Ki (hCA IV): 0.348 µM

Structure (SMILES): NS(=O)(=O)c1cccc(N2C(=S)NC3C(O)C(C(O)CO)OC32)c1 [Compound 8b, 1-(3′-Sulfonamidophenyl)-(1″,2″-dideoxy-α-D-glucofurano)[2,1-d]imidazolidine-2-thione]
- Ki (hCA IV): 0.0451 µM

Structure (SMILES): NS(=O)(=O)c1ccc(CCN2C(=S)NC3C(O)C(C(O)CO)OC32)cc1 [Compound 8c, 1-[2′-(4″-Sulfonamidophenyl)]ethyl-(1‴,2‴-dideoxy-α-D-glucofurano)[2,1-d]imidazolidine-2-thione]
- Ki (hCA IV): 1.05 µM

Structure (SMILES): NS(=O)(=O)c1ccc(N2C(=S)NC3C(O)C(C(O)CO)OC32)cc1 [Compound 9a, 1-(4′-Sulfonamidophenyl)-(1″,2″-dideoxy-α-D-galactofurano)[2,1-d]imidazolidine-2-thione]
- Ki (hCA IV): 4.57 µM

Structure (SMILES): NS(=O)(=O)c1cccc(N2C(=S)NC3C(O)C(C(O)CO)OC32)c1 [Compound 9b, 1-(3′-Sulfonamidophenyl)-(1″,2″-dideoxy-α-D-galactofurano)[2,1-d]imidazolidine-2-thione]
- Ki (hCA IV): 27.3 µM

Structure (SMILES): CO[C@H]1O[C@H](CO)[C@@H](O)[C@H](O)[C@H]1NC(=S)NCCCCOc1ccc2c(-c3ccccc3)cc(=O)oc2c1 [Compound 21e, N-(Methyl 2-deoxy-α-D-glucopyranosid-2-yl)-N′-{4′-[7″-(4″-phenyl-2″-oxo-2″H-chromen-7″-yl)oxy]butyl}thiourea]
- melting point: 165 °C
- Ki (hCA I): > 100 µM
- Ki (hCA II): > 100 µM
- Ki (hCA IX [1]): 0.106 µM
- S.I. I/IX (hCA IX [1]): >945
- S.I. II/IX (hCA IX [1]): >945
- Ki (hCA XII): 0.228 µM
- S.I. I/XII (hCA XII): >439
- S.I. II/XII (hCA XII): >439

Structure (SMILES): CO[C@H]1O[C@H](CO)[C@@H](O)[C@H](O)[C@H]1NC(=S)NCCCCCCOc1ccc2c(-c3ccccc3)cc(=O)oc2c1 [Compound 21f, N′-(Methyl 2-deoxy-α-D-glucopyranosid-2-yl)-N′-{6′-[7″-(4″-phenyl-2″-oxo-2″H-chromen-7″-yl)oxy]hexyl}thiourea]
- GI50 (A549 (Lung, Non-Small)): 34 ± 4 µM
- GI50 (HBL-100 (Breast)): 23 ± 3.2 µM
- GI50 (HeLa (Cervix)): 25 ± 8 µM
- GI50 (SW1573 (Lung, Non-Small)): 9.7 µM
- GI50 (T-47D (Breast)): 30 ± 7.4 µM
- GI50 (WiDr (Colon)): 36 ± 16 µM
- GI50 ([3]; the five cell lines other than SW1573, read-out: GI50, other five lines): 23 to 36 µM
- melting point: 148 °C
- Ki (hCA I): > 100 µM
- Ki (hCA II): 17.3 µM
- Ki (hCA IX [1]): 0.116 µM
- S.I. I/IX (hCA IX [1]): >858
- S.I. II/IX (hCA IX [1]): 148
- Ki (hCA XII): 0.164 µM
- S.I. I/XII (hCA XII): >610
- S.I. II/XII (hCA XII): 106

Structure (SMILES): Cc1cc(=O)oc2cc(OCCCCCCN3C(=S)N[C@@H]4[C@@H](O)[C@@H]([C@H](O)CO)O[C@@H]43)ccc12 [Compound 24c, 1-{6′-[7″-(4″-Methyl-2″-oxo-2″H-chromen-7″-yl)oxy]hexyl}-(1‴,2‴-dideoxy-α-D-glucofurano)[2,1-d]imidazolidine-2-thione]
- Ki (hCA I): > 100 µM
- Ki (hCA II): > 100 µM

Structure (SMILES): O=c1cc(-c2ccccc2)c2ccc(OCCCCN3C(=S)N[C@@H]4[C@@H](O)[C@@H]([C@H](O)CO)O[C@@H]43)cc2o1 [Compound 24e, 1-{4′-[7″-(4″-Phenyl-2″-oxo-2″H-chromen-7″-yl)oxy]butyl}-(1‴,2‴-dideoxy-α-D-glucofurano)[2,1-d]imidazolidine-2-thione]
- GI50 (A549 (Lung, Non-Small)): 64 ± 31 µM
- GI50 (HBL-100 (Breast)): 23 ± 0.8 µM
- GI50 (HeLa (Cervix)): 31 ± 0.2 µM
- GI50 (SW1573 (Lung, Non-Small)): 5.7 ± 1.8 µM
- GI50 (T-47D (Breast)): 70 ± 23 µM
- GI50 (WiDr (Colon)): 47 ± 11 µM

Structure (SMILES): O=c1cc(-c2ccccc2)c2ccc(OCCCCCCN3C(=S)N[C@@H]4[C@@H](O)[C@@H]([C@H](O)CO)O[C@@H]43)cc2o1 [Compound 24f, 1-{6′-[7″-(4″-Phenyl-2″-oxo-2″H-chromen-7″-yl)oxy]hexyl}-(1‴,2‴-dideoxy-α-D-glucofurano)[2,1-d]imidazolidine-2-thione]
- GI50 ([3]; maximum concentration tested 100 µM, read-out: GI50, all tested cell lines): > 100 µM

Structure (SMILES): Cc1cc(=O)oc2cc(OCCCCCCN3C(=S)NC4C(O)C(C(O)CO)OC43)ccc12 [Compound 26, 1-{4′-[7″-(4″-Methyl-2″-oxo-2″H-chromen-7″-yl)oxy]hexyl}-(1‴,2‴-dideoxy-α-D-galactofurano)[2,1-d]imidazolidine-2-thione]
- Ki (hCA I): > 100 µM
- Ki (hCA II): > 100 µM

Structure (SMILES): CO[C@H]1O[C@H](CO)[C@@H](O)[C@H](O)[C@H]1NC(=S)Nc1ccc2c(C)cc(=O)oc2c1 [Compound C00016]
- GI50 (A549 (Lung, Non-Small)): 79 ± 36 µM
- GI50 (HBL-100 (Breast)): 86 ± 25 µM
- GI50 (HeLa (Cervix)): 83 ± 30 µM
- GI50 (SW1573 (Lung, Non-Small)): 79 ± 37 µM
- GI50 (T-47D (Breast)): > 100 µM
- GI50 (WiDr (Colon)): > 100 µM
